“Also recorded” adds a separate entry of the source.
Experiments:
[1] = test system: HL-60 cell lines; assay: FACS analysis of gp96 on cell surface of HL-60 cell lines; assay type: cell-based; conditions: 1 mM, 24 hours
Experimental: FIG. 35 is a graph showing an FACS analysis result using gp96 antibody, on the amount of gp96 protein existing on a cell surface, when HL-60 cell lines were treated with a 2,4-pyrimidine derivatives at a concentration of 1 mM for 24 hours.
Also, HL-60 cell lines were treated with a 2,4-pyrimidine derivative at a concentration of 1 mM for 24 hours, and the amount of gp96 protein existing on a cell surface was analyzed through flow cytometry (FACS) using gp96 antibody.

[2] = target: interaction of gp96 and AIMP1 (Mus musculus, UniProt P08113); assay: ELISA assay of gp96-AIMP1 interaction; assay type: binding, murine; conditions: read-out: Inhibition rate (at 100 nM; %)
interaction of gp96 and AIMP1, sequence (P08113 22-802): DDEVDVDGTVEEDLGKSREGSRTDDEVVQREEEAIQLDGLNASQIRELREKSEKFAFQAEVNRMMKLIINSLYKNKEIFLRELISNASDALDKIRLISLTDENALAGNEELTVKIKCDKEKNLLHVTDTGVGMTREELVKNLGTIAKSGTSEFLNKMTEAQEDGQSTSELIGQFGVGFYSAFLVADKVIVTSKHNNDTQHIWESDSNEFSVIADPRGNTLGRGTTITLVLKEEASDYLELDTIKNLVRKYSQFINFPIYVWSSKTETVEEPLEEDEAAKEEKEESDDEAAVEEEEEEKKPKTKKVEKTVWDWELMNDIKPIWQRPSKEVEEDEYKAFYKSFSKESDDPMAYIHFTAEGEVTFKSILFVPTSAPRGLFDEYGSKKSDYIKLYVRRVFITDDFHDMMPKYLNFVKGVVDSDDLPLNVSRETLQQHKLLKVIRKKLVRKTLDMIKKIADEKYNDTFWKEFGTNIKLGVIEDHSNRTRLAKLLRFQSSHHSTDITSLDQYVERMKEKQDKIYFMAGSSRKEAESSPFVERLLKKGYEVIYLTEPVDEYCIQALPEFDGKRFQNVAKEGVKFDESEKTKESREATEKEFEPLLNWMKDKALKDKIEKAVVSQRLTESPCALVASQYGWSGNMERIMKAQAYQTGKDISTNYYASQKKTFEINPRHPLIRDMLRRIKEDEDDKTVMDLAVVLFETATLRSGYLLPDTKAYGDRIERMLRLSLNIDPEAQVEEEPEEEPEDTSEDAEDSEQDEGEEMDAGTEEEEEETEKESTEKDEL
Experimental: FIGS. 1 to 9 represent suppression of cell surface gp96 by GPM1 reduces DC maturation and B220^+ population in gp96tm transgenic mice. (FIG. 1) Chemical structure of GPM1 (Formula 2) and negative control (NC1, Formula 16) used in this study. (FIG. 2) The dose-dependent effect of GPM1 or NC1 on the AIMP1-gp96 interaction using ELISA method as described. The indicated concentrations of the two compounds and biotin-conjugated murine gp96 were added to AIMP1 coated on the surface of microtiter wells, and gp96 bound to AIMP1 was detected with strepavidin-conjugated peroxidase. (FIG. 3) The binding of GPM1 to gp96 was examined by surface plasmon resonance (SPR). GPM1 at the indicated concentrations was injected to immobilized gp96 and the binding was measured using Biacore 3000. The response data were processed using data from a reference surface and buffer injections. Each concentration was tested in triplicate. (FIG. 4) RAW24.7 cells were treated with 10 μM GPM1 for 24 h. Cell lysates were immunoprecipitated with control IgG or anti-gp96 antibody and the immunoprecipitated proteins were immunoblotted with anti-KDELR1, antiAIMP1 and gp96 antibodies. WCL means whole cell lysate. (FIG. 5) Splenocytes isolated from C57BL/6 mice were treated with vehicle (5% DMSO in PBS), GPM1, or NC1 (10 μM, 24 h), stained for cell surface gp96, and followed by flow cytometry. (FIG. 6) AIMP1^+/+ or AIMP1^−/− mouse splenocytes (2×10^5 cells) were treated with vehicle, GPM1, or NC1 (10 μM, 24 h), fixed, and then co-cultured with WT bone marrow-derived DCs (1×10^4 cells) for 16 h. TNFα secreted from BMDCs was quantified by ELISA. (FIG. 7) Percentage of gp96^+ MHC class II^+ cell population in splenocytes from gp96tm transgenic female mice treated with vehicle (control) (n=9), GPM1 (n=9), and dexamethasone (n=7) at 30 mg/kg. (FIG. 8) Cell surface ICOSL of CD11b^+CD11c^+ (myeloid DCs), CD11b^−CD11c^+ (lymphoid DCs), and CD11b^+CD11c^− (macrophages) cell populations in splenocytes from gp96tm transgenic female mice treated with vehicle (n=9) and GPM1 (n=9) at 30 mg/kg. (FIG. 9) Percentage of B220^+, MHC class II^+, CD4^+, CD8^+, CD4 and CD8 double negative cell populations in splenocytes from gp96tm transgenic female mice treated with vehicle (n=9), GPM1 (n=9), and dexamethasone (n=7) at 30 mg/kg. Student t-test P values comparing GPM1-treated mice with control are indicated.
96-well plates (Maxisorp., F96; Nunc) were coated with 500 ng/well AIMP1 in PBS (pH 7.4). After washing, the remaining sites were blocked with PBS containing 1% BSA for 1 h. Binding of 10 ng/well biotin-conjugated gp96 was performed in Tris buffer (25 mM Tris, 10 mM NaCl and 0.4% Triton X-100). Each of the 6,580 compounds was added to the well at 100 nM and the plates were washed and incubated with HRP conjugated streptavidin in PBS containing 0.1% BSA and 0.1% Tween 20 for 30 min. The plates were washed, and then substrate was added to each well. The absorbance was monitored at 450 nm.
To identify chemicals that can affect membrane translocation of gp96, the present inventors employed the interaction of gp96 with AIMP1 as the screening target. For this screening, the present inventors chose 6,482 chemicals with different pharmacophore representing 150,000 different chemicals deposited in Korea Chemical Bank and identified the compounds that can inhibit the interaction of the two proteins. For the screening, the present inventors set up a modified ELISA method using recombinant AIMP1 and gp96 proteins as described in Experimental methods. Each of the tested compounds gave different effect on the interaction of the two proteins (FIG. 19). And the present inventors have selected 12 compounds that inhibited the interaction more than 95% of the control at 0.1 μM (Table 1). The present inventors obtained 1251 additional compounds derived from these 12 initial hits and tested them again for their activities against the gp96-AIMP1 interaction.

[3] = test system: gp96tm transgenic mice
Experimental: Female gp96tm transgenic mice (Proc Natl Acad Sci USA. 2003 December 23; 100(26): 15824-15829) were bred and maintained at the animal center for pharmaceutical research, Seoul National University. We used age-matched, 12-26 weeks old mice in each experimental group. To suppress cell surface gp96 we used GPM1 compound. Dexamethasone and GPM1 were dissolved in 5% DMSO in phosphate-buffered saline (PBS) and control vehicle was 5% DMSO in PBS. Compounds were administered i.p. every 24 h for 2 months (30 mg/kg/day). Three groups of each 9 mice were examined. All procedures were conducted in accordance with the Guide for the Care and Use of Laboratory Animals, published by the Korean National Institute of Health.
Spleen and lymph node cell suspensions were prepared by grindling tissue through sterile mesh and erythrocytes were lysed with RBC lysis buffer (eBioscience, CA). For surface staining, antibodies were fluoresceinisothiocyanate (FITC)-, phycoerythrin (PE)-, PerCP-, or APC-conjugated. Antibodies used were CD4 (RM4-5, H129.12), CD8 (53-6,7), B220 (RA3-6B2), CD11b (M1/70), CD11c (HL3), CD44 (IM7), CD62L (MEL-14), CD69 (H1.2F3), CD25 (PC61.5), IgM (11/41), IgD (11-26C.2a) (BD Pharmingen, CA), MHC class II (M5/114.15.2), Foxp3 (FJK-16s) (eBioscience, CA), and gp96 (Santacruz, Calif.). After staining, cells were washed and analyzed on a FACS can flow cytometer using CellQuest software (BD Bioscience, Mountain View, Calif.).
Kidney tissue sections of gp96tm transgenic mice were fixed in 10% formaldehyde in PBS and dehydrated using an alcohol gradient. After paraffin infiltration, the tissues were sectioned using a microtome, stained with hematoxylin and eosin (H&E) and analyzed by light microscopy. For immunofluorescent staining, kidneys were sectioned with a cryostat. These cryosections were blocked with normal goat serum, stained with FITC-conjugated goat anti-mouse Ig (BD pharmingen, CA), and then observed by fluorescent microscopy.
The present inventors compared the effect of GPM1 with phosphate-buffered saline containing 5% DMSO and dexamethasone (Dex), an immunosuppressant of glucocorticoid family as negative and positive control, respectively. Each group consisted of age-matched nine female mice. […] After 2 month, the present inventors isolated MHC class II^+ splenocytes and lymph nodes from vehicle-, Dex-, and GPM1-treated mice and determined the portion of gp96^+ cells by flow cytometry.

| inhibition at 0.1 µM [2] | Compound | amount of gp96 protein existing on a cell surface [1] | also measured |
| --- | --- | --- | --- |
| 94% | COC(=O)C(Oc1nc(OC)cc(OC)n1)c1ccc(Br)cc1 (stereo not drawn) [Formula 4, methyl 2-(4-bromophenyl)-2-(4,6-dimethoxypyrimidin-2-yloxy)acetate] | – | – |
| 82% | COC(=O)C(Oc1nc(OC)cc(OC)n1)C(C)C (stereo not drawn) [Formula 5, methyl 2-(4,6-dimethoxypyrimidin-2-yloxy)-3-methylbutanoate] | – | – |
| 71% | COC(=O)C(Oc1nc(OC)cc(OC)n1)c1cccs1 (stereo not drawn) [Formula 6, methyl 2-(4,6-dimethoxypyrimidin-2-yloxy)-2-(thiophen-2-yl)acetate] | – | – |
| 99% | COc1cc(OC)nc(OC(C(=O)O)c2ccccc2)n1 (stereo not drawn) [Formula 7, 2-(4,6-dimethoxypyrimidin-2-yloxy)-2-phenylacetic acid] | – | – |
| 30% | COc1cc(OC)nc(O[C@@H](C(=O)O)c2ccccc2)n1 [Formula 8, (R)-2-(4,6-dimethoxypyrimidin-2-yloxy)-2-phenylacetic acid] | – | – |
| 90% | COc1nc(OCc2ccccc2)nc(OC)c1C(N)=O [Formula 9, 2-(benzyloxy)-4,6-dimethoxypyrimidine-5-carboxamide] | – | – |
| 76% | COc1cc(OC)nc(OCc2ccccc2Cl)n1 [Formula 10, 2-(2-chlorobenzyloxy)-4,6-dimethoxypyrimidine] | – | – |
| 95% | COc1cc(OC)nc(Oc2ccncc2)n1 [Formula 11, 4,6-dimethoxy-2-(pyridin-4-yloxy)pyrimidine] | – | – |
| 84% | Oc1nc(Oc2ccc(F)c(C(F)(F)F)c2)cc(Oc2ccc(F)c(C(F)(F)F)c2)n1 [Formula 14, 4,6-bis(4-fluoro-3-(trifluoromethyl)phenoxy)pyrimidin-2-ol] | – | – |
| 54% | COc1cc(OC)nc(Oc2cccnc2N)n1 [Formula 15, 3-(4,6-dimethoxypyrimidin-2-yloxy)pyridin-2-amine] | – | – |

The remaining lines, values behind:

| Compound | inhibition at 0.1 µM [2] | amount of gp96 protein existing on a cell surface [1] | also measured |
| --- | --- | --- | --- |
| 2-(4,6-dimethoxy-pyrimidin-2-yloxy)-N-isopropyl-3-methyl-butyl amide [KR-S-005] | – | better effects than KR-S-015; also recorded: better than ester (KR-S-010) or acid (KR-S-009) | – |
| COC(=O)C(C)Oc1nc(C)c(Cl)c(OC)n1 (stereo not drawn) [Formula 3, methyl 2-(5-chloro-4-methoxy-6-methylpyrimidin-2-yloxy)propanoate] | 97% | – | – |
| CC(C)(C)Oc1cc(OC(C)(C)C)nc(Oc2cccnc2)n1 [Formula 12, 4,6-di-tert-butoxy-2-(pyridin-3-yloxy)pyrimidine] | 86% | – | – |
| CC(C)(C)Oc1ncc(-c2ccccn2)c(OC(C)(C)C)n1 [Formula 13, 2,4-di-tert-butoxy-5-(pyridin-2-yl)pyrimidine] | 86% | – | – |
| CCN(CC)C(=O)C(Oc1nc(OC)cc(OC)n1)C(C)C (stereo not drawn) [KR-S-001, 2-(4,6-Dimethoxy-pyrimidin-2-yloxy)-N,N-diethyl-3-methyl-butyl amide] | – | better effects than KR-S-015; also recorded: better than ester (KR-S-010) or acid (KR-S-009) | – |
| COc1cc(OC)nc(OC(C(=O)N(C)OC)C(C)C)n1 (stereo not drawn) [KR-S-006, 2-(4,6-dimethoxy-pyrimidin-2-yloxy)-N-methoxy-3,N-dimethyl-butyl amide] | – | better effects than KR-S-015; also recorded: better than ester (KR-S-010) or acid (KR-S-009) | – |
| COc1cc(OC)nc(OC(C(=O)N2CCCCC2)C(C)C)n1 (stereo not drawn) [KR-S-007, 2-(4,6-dimethoxy-pyrimidin-2-yloxy)-3-methyl-1-piperidin-1-yl-butan-1-one] | – | better effects than KR-S-015; also recorded: better than ester (KR-S-010) or acid (KR-S-009) | – |
| COc1cc(OC)nc(OC(C(=O)N2CCOCC2)C(C)C)n1 (stereo not drawn) [KR-S-008, 2-(4,6-dimethoxy-pyrimidin-2-yloxy)-3-methyl-1-morpholin-4-yl-butan-1-one] | – | better effects than KR-S-015; also recorded: better than ester (KR-S-010) or acid (KR-S-009) | – |
| COc1cc(OC)nc(OC(C(=O)O)C(C)C)n1 (stereo not drawn) [KR-S-009, 2-(4,6-dimethoxy-pyrimidin-2-yloxy)-3-methyl-butyric acid] | – | better effects than KR-S-015 | – |
| COC(=O)[C@H](C)Oc1nc(OC)cc(OC)n1 [KR-S-011, L-2-(4,6-Dimethoxy-pyrimidin-2-yloxy)-propionic acid methyl ester] | – | better effects than KR-S-015; also recorded: better than isopropyl (KR-S-009, KR-S-010) | – |
| COC(=O)[C@@H](C)Oc1nc(OC)cc(OC)n1 [KR-S-012, D-2-(4,6-Dimethoxy-pyrimidin-2-yloxy)-propionic acid methyl ester] | – | better effects than KR-S-015; also recorded: better than isopropyl (KR-S-009, KR-S-010) | – |
| C[C@@H]1C[C@H]2[C@@H]3CCC4=CC(=O)C=C[C@]4(C)[C@@]3(F)[C@@H](O)C[C@]2(C)[C@@]1(O)C(=O)CO [dexamethasone, reference compound] | – | – | adverse effects / death during administration ([3]; 2-month intraperitoneal administration, 30 mg/kg): two of nine; total cell count (spleen) ([3]; mouse, in vivo, 30 mg/kg/day): 4.80 ± 2.38 × 10^5; percentages of gp96+ MHC class II+ cells ([3]; splenocytes, after 2 month, 30 mg/kg): ~25% |

— patent publication US9573907B2, “2, 4-pyrimidine derivatives and use thereof” (SNU R&DB FOUNDATION, priority 2009, dated 2017)
